Like-named read-outs stand apart in the source and are kept apart here.
What was measured:
[1] = system: PKMYT1 (CDK1 pThr14) in FUOV1 cells; test: PKMYT1 cell-based activity assay, CDK1 pThr14 AlphaLISA in FUOV1 cells; conditions: read-out: FUOV-1 CDK1 pThr14 IC50
Method in brief: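 FUOV1 cells were treated with PKMYT1 inhibitor for 2 h at 37 °C, then lysed. CDK1 pThr14 was measured by AlphaLISA, pairing an anti-pThr14 antibody with an anti-total CDK1 antibody (5 nM each). Signal read at 680/615 nm and used to derive IC50.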

[2] = target: recombinant human Myt1 (full length PKMYT1) (Homo sapiens (Human), UniProt Q99640); test: Recombinant human Myt1 kinase assay (ADP-Glo); format: biochemical; conditions: 10 μM ATP
Method in brief: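 Full-length insect-cell-expressed human Myt1 (18 nM final) was preincubated with compound (0.5% DMSO) for 15 min at 22 °C. The reaction ran with 10 μM ATP for 60 min at 30 °C in HEPES buffer with Mg2+/Mn2+ and DTT. ADP formed was read by ADP-Glo luminescence, giving IC50 and % max inhibition.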

Chain of recombinant human Myt1 (full length PKMYT1) (Q99640 whole entry): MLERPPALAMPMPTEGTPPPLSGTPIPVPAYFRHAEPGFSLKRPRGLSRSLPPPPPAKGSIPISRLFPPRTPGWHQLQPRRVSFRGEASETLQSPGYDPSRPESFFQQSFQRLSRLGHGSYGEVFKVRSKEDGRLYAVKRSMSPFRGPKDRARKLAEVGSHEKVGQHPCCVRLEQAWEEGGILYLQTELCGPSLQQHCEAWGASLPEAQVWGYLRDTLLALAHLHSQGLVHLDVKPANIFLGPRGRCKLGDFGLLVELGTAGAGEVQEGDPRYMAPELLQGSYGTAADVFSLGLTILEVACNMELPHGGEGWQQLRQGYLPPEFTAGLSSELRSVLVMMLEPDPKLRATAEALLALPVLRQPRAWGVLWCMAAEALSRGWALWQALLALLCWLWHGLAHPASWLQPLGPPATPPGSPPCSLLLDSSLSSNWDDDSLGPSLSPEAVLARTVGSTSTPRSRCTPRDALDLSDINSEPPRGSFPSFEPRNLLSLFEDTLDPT

| IC50 ([1]; 2 h, 2 h incubation) | IC50 [2] | IC50 ([1]; 2 h, 2 h compound incubation) | IC50 ([1]; 2 h, 2 hours with compound) | IC50 ([1]; 2 h incubation) | SMILES |
| --- | --- | --- | --- | --- | --- |
| 266 nM | 8 nM | – | – | – | Cc1ccc(O)c(C)c1-c1cc(C(=O)Nc2cccnc2)nc(C(N)=O)c1N [Compound 188, 5-amino-4-(3-hydroxy-2,6-dimethylphenyl)-N2-(pyridin-3-yl)pyridine-2,6-dicarboxamide] |
| – | 38 nM | 1030 nM | – | – | Cc1ccc2[nH]ncc2c1-c1nc(-c2cc(C(F)(F)F)ccc2NC(=O)C2(C)CC2)nc(C(N)=O)c1N [Compound 445] |
| 996 nM | 8 nM | – | – | – | Cc1ccc2[nH]ncc2c1-c1cc(-c2ccnc(OCCc3ncc[nH]3)n2)nc(C(N)=O)c1N [Compound 240] |
| – | 4 nM | 10 nM | – | – | Cc1cccnc1Nc1ncccc1-c1nc(C(N)=O)c(N)c(-c2c(C)ccc3[nH]ncc23)n1 [Compound 622] |
| 1220 nM | 21 nM | – | – | – | Cc1ccc2[nH]ncc2c1-c1cc(-c2ccnc(N)c2)nc(C(N)=O)c1N [Compound 189] |
| – | 12 nM | 317 nM | – | – | Cc1ccc2[nH]ncc2c1-c1nc(-c2ccccc2NC2CCC(F)(F)CC2)nc(C(N)=O)c1N [Compound 453] |
| 281 nM | 13 nM | – | – | – | Cc1ccc2[nH]ncc2c1-c1cc(-c2cccc(OCCN3CCNCC3)n2)nc(C(N)=O)c1N [Compound 183] |
| – | 2 nM | 14 nM | – | – | CC(C)(C)C(=O)Nc1ccccc1-c1nc(C(N)=O)c(N)c(-c2c(Cl)ccc3[nH]ncc23)n1 [Compound 403] |
| – | < 3 nM | – | 118 nM | – | Cc1ccc2[nH]ncc2c1-c1nc(-c2ccc(S(C)(=O)=O)cc2NC2CCOCC2)nc(C(N)=O)c1N [Compound 831] |
| 7740 nM | 55 nM | – | – | – | Cc1ccc(O)c(C)c1-c1cc(-c2nccc3ccccc23)nc(C(N)=O)c1N [Compound 48] |
| – | < 3 nM | – | 209 nM | – | Cc1ccc2[nH]ncc2c1-c1nc(-c2cccnc2NC2CC(OC(F)F)C2)nc(C(N)=O)c1N (stereo not drawn) [Compound 893] |
| – | 2 nM | – | 221 nM | – | Cc1ccc2[nH]ncc2c1-c1nc(-c2cccnc2N[C@H](c2cccnc2)C(F)F)nc(C(N)=O)c1N [Compound 936] |
| – | 3 nM | – | 22 nM | – | Cc1ccc2[nH]ncc2c1-c1nc(-c2cc(F)ncc2NC2CCOCC2)nc(C(N)=O)c1N [Compound 843] |
| 336 nM | 6 nM | – | – | – | Cc1ccc(O)c(C)c1-c1cc(-c2c[nH]cn2)nc(C(N)=O)c1N [Compound 43] |
| – | 6 nM | 21 nM | – | – | COc1ccc(-c2nc(C(N)=O)c(N)c(-c3c(C)ccc4[nH]ncc34)n2)c(NC(=O)C2(C)CC2)c1 [Compound 455] |
| – | 2 nM | 67 nM | – | – | Cc1ccc2[nH]ncc2c1-c1nc(-c2cccnc2NC2CCOCC2C)nc(C(N)=O)c1N (stereo not drawn) [Compound 606] |
| 332 nM | 11 nM | – | – | – | COC[C@H](C)Oc1nccc(-c2cc(-c3c(C)ccc4[nH]ncc34)c(N)c(C(N)=O)n2)n1 [Compound 203] |
| – | 29 nM | 1390 nM | – | – | Cc1ccc2[nH]ncc2c1-c1nc(-c2cccnc2Nc2cccc(C(F)(F)F)c2)nc(C(N)=O)c1N [Compound 608] |
| 1600 nM | 15 nM | – | – | – | Cc1ccc2[nH]ncc2c1-c1cc(-c2cccc(Oc3cccc(N4CCCC4)c3)n2)nc(C(N)=O)c1N [Compound 182] |
| 414 nM | 8 nM | – | – | – | CSc1nccc(-c2cc(-c3c(C)ccc4[nH]ncc34)c(N)c(C(N)=O)n2)n1 [Compound 167] |
| – | 4 nM | – | – | 132 nM | Cc1ccc(O)c(C)c1-c1cc(-c2ccnc(N)c2)nc(C(N)=O)c1N [Compound 14] |
| 507 nM | 7 nM | – | – | – | Cc1ccc2[nH]ncc2c1-c1cc(-c2cccc(OCc3cncnc3)n2)nc(C(N)=O)c1N [Compound 262] |
| 77 nM | 10 nM | – | – | – | Cc1ccc(O)c(C)c1-c1cc(-c2cccc(=O)[nH]2)nc(C(N)=O)c1N [Compound 72] |
| – | 4 nM | 278 nM | – | – | Cc1ccc2[nH]ncc2c1-c1nc(-c2ccccc2C(C)O)nc(C(N)=O)c1N (stereo not drawn) [Compound 787] |
| – | 2 nM | 142 nM | – | – | Cc1ccc2[nH]ncc2c1-c1cc2c(oc3cccnc32)c(C(N)=O)c1N [Compound 458, 7-amino-8-(5-methyl-1H-indazol-4-yl)benzofuro[3,2-b]pyridine-6-carboxamide] |
| 208 nM | 4 nM | – | – | – | Cc1ccc(-c2cc(-c3c(C)ccc(O)c3C)c(N)c(C(N)=O)n2)nc1 [Compound 40] |
| – | 4 nM | – | – | 167 nM | Cc1ccc2[nH]ncc2c1-c1cc(-c2cccc(OCc3cccnn3)n2)nc(C(N)=O)c1N (atropisomer, axis not shown) [Compound 260] |

| IC50 ([1]; 2 h, 2 h incubation) | IC50 [2] | IC50 ([1]; 2 h, 2 h compound incubation) | IC50 ([1]; 2 h, 2 hours with compound) | IC50 ([1]; 2 h incubation) | SMILES |
| --- | --- | --- | --- | --- | --- |
| – | 5 nM | 42 nM | – | – | Cc1ccc2[nH]ncc2c1-c1nc(-c2cccnc2NCC(F)F)nc(C(N)=O)c1N [Compound 625] |
| 444 nM | 5 nM | – | – | – | COCCNc1nccc(-c2cc(-c3c(C)ccc4[nH]ncc34)c(N)c(C(N)=O)n2)n1 [Compound 214, 3-amino-6-(2-((2-methoxyethyl)amino)pyrimidin-4-yl)-4-(5-methyl-1H-indazol-4-yl)picolinamide] |
| 560 nM | 21 nM | – | – | – | Cc1ccc(O)cc1-c1nc(-c2nccs2)nc(C(N)=O)c1N [Compound 3, 5-amino-6-(5-hydroxy-2-methylphenyl)-2-(thiazol-2-yl)pyrimidine-4-carboxamide] |
| – | 7 nM | 9 nM | – | – | Cc1ccc2[nH]ncc2c1-c1nc(-c2ccccc2NC(=O)C2(C)COC2)nc(C(N)=O)c1N [Compound 408] |
| – | < 3 nM | – | 27 nM | – | Cc1ccc2[nH]ncc2c1-c1nc(-c2cccnc2NC2(C)CC(C)(O)C2)nc(C(N)=O)c1N (stereo not drawn) [Compound 901] |
| – | 5 nM | 28 nM | – | – | Cc1ccc2[nH]ncc2c1-c1nc(-c2ccccc2NCC(F)(F)F)nc(C(N)=O)c1N [Compound 409] |
| – | 4 nM | 414 nM | – | – | Cc1ccc2[nH]ncc2c1-c1nc(-c2cccnc2Nc2cccc(C(N)=O)c2)nc(C(N)=O)c1N [Compound 609] |
| – | 7 nM | 104 nM | – | – | Cc1ccc2[nH]ncc2c1-c1nc(-c2ccccc2NC(C)(C)C)nc(C(N)=O)c1N [Compound 451] |
| – | 8 nM | – | 62 nM | – | Cc1ccc2[nH]ncc2c1-c1nc(-c2cccnc2NS(C)(=O)=O)nc(C(N)=O)c1N [Compound 804, 5-amino-6-(5-methyl-1H-indazol-4-yl)-2-(2-(methylsulfonamido)pyridin-3-yl)pyrimidine-4-carboxamide] |
| – | 6 nM | 106 nM | – | – | Cc1ccc2[nH]ncc2c1-c1nc(-c2cc(F)c(F)cc2NCC(F)F)nc(C(N)=O)c1N [Compound 467] |
| 575 nM | 5 nM | – | – | – | Cc1ccc(O)c(C)c1-c1cc(-c2cc(F)cc(F)c2)nc(C(N)=O)c1N [Compound 16, 3-amino-6-(3,5-difluorophenyl)-4-(3-hydroxy-2,6-dimethylphenyl)picolinamide] |
| – | 4 nM | 81 nM | – | – | Cc1ccc2[nH]ncc2c1-c1nc(-c2ccccc2NC(=O)C2CCOCC2)nc(C(N)=O)c1N [Compound 424] |
| – | 13 nM | 523 nM | – | – | Cc1cccc(-c2nc(C(N)=O)c(N)c(-c3c(C)ccc4[nH]ncc34)n2)c1NC(=O)C1(C)CC1 [Compound 440] |
| 39 nM | 7 nM | – | – | – | Cc1ccc2[nH]ncc2c1-c1cc(-c2ccnc(OCc3ncccn3)n2)nc(C(N)=O)c1N [Compound 235] |
| 232 nM | 13 nM | – | – | – | Cc1ccc2[nH]ncc2c1-c1cc(-c2ccnc(OCCO)n2)nc(C(N)=O)c1N [Compound 299] |
| 544 nM | 6 nM | – | – | – | Cc1ccc2[nH]ncc2c1-c1cc(-c2cccc(OCc3nccs3)n2)nc(C(N)=O)c1N [Compound 261] |
| – | 7 nM | 60 nM | – | – | NC(=O)c1nc(-c2ccccc2NC(=O)C2(C(F)(F)F)CC2)nc(-c2c(Cl)ccc3[nH]ncc23)c1N [Compound 411] |
| – | 3 nM | 5 nM | – | – | Cc1ccc2[nH]ncc2c1-c1nc(-c2cc(F)ccc2NC(=O)C2(C)CC2)nc(C(N)=O)c1N [Compound 447] |
| 517 nM | 11 nM | – | – | – | Cc1ccc(O)cc1-c1nc(-c2ccccc2)nc(C(N)=O)c1N [Compound 2, 5-amino-6-(5-hydroxy-2-methylphenyl)-2-phenylpyrimidine-4-carboxamide] |
| – | 2 nM | 83 nM | – | – | Cc1ccc2[nH]ncc2c1-c1nc(-c2cc(F)ccc2NS(=O)(=O)C2CC2)nc(C(N)=O)c1N [Compound 481] |
| – | 4 nM | – | 58 nM | – | Cc1ccc2[nH]ncc2c1-c1nc(-c2cn(C)nc2NC2CCOCC2)nc(C(N)=O)c1N [Compound 845] |
| 433 nM | 8 nM | – | – | – | Cc1nc2cccc(-c3nc(C(N)=O)c(N)c(-c4c(C)ccc5[nH]ncc45)n3)c2s1 [Compound 389] |
| – | 4 nM | 38 nM | – | – | Cc1ccc2[nH]ncc2c1-c1nc(-c2ccccc2NS(=O)(=O)C2CC2)nc(C(N)=O)c1N [Compound 426] |
| – | 4 nM | 8 nM | – | – | Cc1ccc2[nH]ncc2c1-c1nc(-c2ccccc2NC(=O)C2(Cl)CC2)nc(C(N)=O)c1N [Compound 441] |
| 164 nM | 10 nM | – | – | – | Cc1ccc2[nH]ncc2c1-c1cc(-c2cccc(N[C@H]3C[C@H](O)C3)n2)nc(C(N)=O)c1N [Compound 322] |
| 8670 nM | 36 nM | – | – | – | Cc1ccc(O)c(C)c1-c1cc(Cl)nc(C(N)=O)c1N [Compound 17] |
| – | 5 nM | 53 nM | – | – | Cc1ccc2[nH]ncc2c1-c1nc(-c2ccccc2NC(C)C(F)(F)F)cc(C(N)=O)c1N (stereo not drawn) [Compound 406] |

From patent US20250304537A1 (Repare Therapeutics Inc., priority 2022, published 2025)
